Experimental data published in US20250332173A1, “COMPOUNDS AND METHODS FOR MODULATING NUCLEIC ACID SPLICING” (REMIX THERAPEUTICS INC., priority 2021, published 2025).
Where two headings read alike, the source gives them in different places.

Key:
Format in all cases: cell-based, human
[1] = test system: HTT mRNA; experiment: RT-qPCR splicing assay, HTT canonical junction (CJ) and alternative junction (AJ) mRNA; conditions: Homo sapiens; for AC50: increase in HTT alternative junction (AJ) mRNA, read-out: HTT AJ AC50
How it was run: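 Read-out is one-step RT-qPCR on cell lysates detecting the exon-exon junction of each isoform, normalized to a housekeeping gene (PPIA in A673, GAPDH or GUSB in K562).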

[2] = test system: HTT; experiment: HiBiT protein abundance assay, HTT HiBiT K562 cell line; conditions: 24 hours, top dose 10 μM
How it was run: (§1)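 Tagged-protein abundance measured by split-NanoBiT luminescence after lysis, following 24 h compound exposure (37° C; 10 μM top, 3-fold, 10 points; DMSO ≤0.25%) of HiBiT knock-in K562 cells. Percent response vs DMSO and unmodified-cell controls; 4-parameter logistic interpolation at 50% gave IC50.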

[3] = test system: MYB; experiment: HiBiT protein abundance assay, MYB HiBiT K562 cell line; conditions: 24 hours, top dose 10 μM
How it was run: as §1

[4] = decrease in HTT canonical junction (CJ) mRNA, RT-qPCR, read-out: HTT CJ IC50
[5] = Table 5 panel, canonical junction qPCR, compound concentration having 50% response in CJ decrease, read-out: HTT IC50 (decrease in CJ mRNA levels)
[6] = HiBiT K562 cell line, read-out: Effect on protein abundance, HTT (IC50 category)
[7] = HiBiT K562 cell line, read-out: Effect on protein abundance, MYB (IC50 category)
[8] = canonical junction qPCR panel, Table 5, read-out: HTT (decrease in CJ mRNA levels, IC50)
[9] = HiBiT lytic detection, modified K562 cells, read-out: Effect on protein abundance, HTT (IC50)
[10] = HiBiT lytic detection, modified K562 cells, read-out: Effect on protein abundance, MYB (IC50)

Structure (SMILES): O=C1c2ccc(-c3cn[nH]c3)cc2CCN1C1CCNCC1 [Compound 220, 2-(piperidin-4-yl)-6-(1H-pyrazol-4-yl)-3,4-dihydroisoquinolin-1-one]
- IC50 [1, 4]: > 10000 nM
- AC50 ([1]; RT-qPCR): > 10000 nM
- IC50 [1, 5]: > 10000 nM
- IC50 [2, 6]: > 10000 nM
- IC50 [3, 7]: > 10000 nM

Structure (SMILES): Cc1c(O)c(-c2ncc3c(=O)n([C@@H]4C[C@H]5COC[C@@H](C4)N5)ccc3n2)cc2cn(C)nc12 [Compound 1471]
- IC50 [1, 4]: 100 to 1000 nM
- AC50 ([1]; RT-qPCR): 100 to 1000 nM
- IC50 [1, 8]: 100 to 1000 nM
- IC50 [2, 9]: 100 to 1000 nM
- IC50 [3, 10]: 100 to 1000 nM

Structure (SMILES): Cc1cn2nc(-c3ccc4c(=O)n(C5CCN(CC6CC6)C6(CC6)C5)ncc4n3)cc(C)c2n1 (stereo not drawn) [Compound 1543, 6-[4-(cyclopropylmethyl)-4-azaspiro[2.5]octan-7-yl]-2-(2,8-dimethylimidazo[1,2-b]pyridazin-6-yl)pyrido[2,3-d]pyridazin-5-one]
- IC50 [1, 4]: < 100 nM
- AC50 ([1]; RT-qPCR): < 100 nM
- IC50 [1, 8]: < 100 nM
- IC50 [2, 9]: < 100 nM
- IC50 [3, 10]: 100 to 1000 nM

Structure (SMILES): Cc1cc(-c2nc3cc(N4CCNCC4)ccc3c(=O)[nH]2)cc2cn(C)nc12 [Compound 2213]
- IC50 [1, 4]: > 10000 nM
- AC50 ([1]; RT-qPCR): > 10000 nM
- IC50 [1, 8]: > 10000 nM
- IC50 [2, 9]: > 10000 nM
- IC50 [3, 10]: > 10000 nM

Structure (SMILES): Cc1cn2nc(-c3ccc4c(c3)CCN(C3CCNCC3)C4=O)cc2c(C)n1 [Compound 223, 6-[4,6-dimethylpyrazolo[1,5-a]pyrazin-2-yl]-2-(piperidin-4-yl)-3,4-dihydroisoquinolin-1-one]
- IC50 [1, 4]: 1000 to 10000 nM
- AC50 ([1]; RT-qPCR): 1000 to 10000 nM
- IC50 [1, 5]: 1000 to 10000 nM
- IC50 [2, 6]: 1000 to 10000 nM
- IC50 [3, 7]: 1000 to 10000 nM

Structure (SMILES): Cc1cn2nc(-c3ccc4c(c3)CCN(C3CCNCC3)C4=O)nc2c(C)n1 [Compound 222, 6-[6,8-dimethyl-[1,2,4]triazolo[1,5-a]pyrazin-2-yl]-2-(piperidin-4-yl)-3,4-dihydroisoquinolin-1-one]
- IC50 [1, 4]: 1000 to 10000 nM
- AC50 ([1]; RT-qPCR): 1000 to 10000 nM
- IC50 [1, 5]: 1000 to 10000 nM
- IC50 [2, 6]: 1000 to 10000 nM
- IC50 [3, 7]: 1000 to 10000 nM

Structure (SMILES): Cc1cn2nc(-c3ccc4c(=O)n([C@H]5CC(C)N[C@@H](C)C5)ncc4n3)cc(C)c2n1 (stereo in doubt) [Compound 1538, 2-(2,8-dimethylimidazo[1,2-b]pyridazin-6-yl)-6-[(2S,6S)-2,6-dimethyl-4-piperidyl]pyrido[2,3-d]pyridazin-5-one]
- IC50 [1, 4]: 100 to 1000 nM
- AC50 ([1]; RT-qPCR): 100 to 1000 nM
- IC50 [1, 8]: 100 to 1000 nM
- IC50 [2, 6]: 100 to 1000 nM
- IC50 [3, 7]: 100 to 1000 nM

Structure (SMILES): Cn1cc2cc(-c3ccc4c(=O)n(C5CCNCC5)cnc4c3)cc(F)c2n1 [Compound 206]
- IC50 [1, 4]: 100 to 1000 nM
- AC50 ([1]; RT-qPCR): 100 to 1000 nM
- IC50 [1, 5]: 100 to 1000 nM
- IC50 [2, 6]: 100 to 1000 nM
- IC50 [3, 7]: 100 to 1000 nM

Structure (SMILES): Cc1cc(-c2ccc3c(=O)[nH]c(N4CCN(C)CC4)nc3c2)cc2cn(C)nc12 [Compound 2212]
- IC50 [1, 4]: 1000 to 10000 nM
- AC50 ([1]; RT-qPCR): 1000 to 10000 nM
- IC50 [1, 8]: 1000 to 10000 nM
- IC50 [2, 9]: > 10000 nM
- IC50 [3, 10]: > 10000 nM

Structure (SMILES): Cc1cn2cc(-c3ncc4c(=O)n([C@H]5CCNC6(CC6)C5)ccc4n3)cc(F)c2n1 [Compound 1458, 6-[(7S)-4-azaspiro[2.5]octan-7-yl]-2-(8-fluoro-2-methyl-imidazo[1,2-a]pyridin-6-yl)pyrido[4,3-d]pyrimidin-5-one]
- IC50 [1, 4]: 100 to 1000 nM
- AC50 ([1]; RT-qPCR): 100 to 1000 nM
- IC50 [1, 8]: 100 to 1000 nM
- IC50 [2, 6]: 100 to 1000 nM
- IC50 [3, 7]: < 100 nM

Structure (SMILES): CN1CCC(Nc2ccc3ncn(-c4ccc5nn(C)cc5c4)c(=O)c3c2)CC1 [Compound 2171]
- IC50 [1, 4]: > 10000 nM
- AC50 ([1]; RT-qPCR): > 10000 nM
- IC50 [1, 8]: > 10000 nM
- IC50 [2, 9]: > 10000 nM
- IC50 [3, 10]: > 10000 nM

Structure (SMILES): CCN1CC[C@@H](n2ncc3nc(-c4cc(C)c5nc(C)cn5n4)ccc3c2=O)CC12CC2 [Compound 1530]
- IC50 [1, 4]: < 100 nM
- AC50 ([1]; RT-qPCR): < 100 nM
- IC50 [1, 8]: < 100 nM
- IC50 [2, 9]: < 100 nM
- IC50 [3, 10]: < 100 nM

Structure (SMILES): Cc1cn2cc(-c3ccc4c(=O)n(C5CCNCC5)cnc4c3F)cc(F)c2n1 [Compound 210]
- IC50 [1, 4]: 1000 to 10000 nM
- AC50 ([1]; RT-qPCR): 1000 to 10000 nM
- IC50 [1, 5]: 1000 to 10000 nM
- IC50 [2, 6]: 1000 to 10000 nM
- IC50 [3, 7]: 1000 to 10000 nM

Structure (SMILES): CN1CCC(n2cnc3cc(-c4cc(F)c5nn(C)cc5c4)ccc3c2=O)CC1 [Compound 209]
- IC50 [1, 4]: 100 to 1000 nM
- AC50 ([1]; RT-qPCR): 1000 to 10000 nM
- IC50 [1, 5]: 1000 to 10000 nM
- IC50 [2, 6]: > 10000 nM
- IC50 [3, 7]: > 10000 nM

Structure (SMILES): Cc1cn2nc(-n3cnc4ccc(N5CCN(C)CC5)cc4c3=O)cc(C)c2n1 [Compound 2202]
- IC50 [1, 4]: 1000 to 10000 nM
- AC50 ([1]; RT-qPCR): 1000 to 10000 nM
- IC50 [1, 8]: 1000 to 10000 nM
- IC50 [2, 9]: 1000 to 10000 nM
- IC50 [3, 10]: 1000 to 10000 nM

Structure (SMILES): CCN1CC[C@H](n2ncc3nc(-c4cc(C)c5nc(C)cn5n4)ccc3c2=O)CC12CC2 [Compound 1531]
- IC50 [1, 4]: 100 to 1000 nM
- AC50 ([1]; RT-qPCR): < 100 nM
- IC50 [1, 8]: < 100 nM
- IC50 [2, 9]: 100 to 1000 nM
- IC50 [3, 10]: 100 to 1000 nM

Structure (SMILES): Cc1cn2cc(-n3cnc4ccc(N5CCNCC5)cc4c3=O)cc(F)c2n1 [Compound 2195]
- IC50 [1, 4]: > 10000 nM
- AC50 ([1]; RT-qPCR): > 10000 nM
- IC50 [1, 8]: > 10000 nM
- IC50 [2, 9]: > 10000 nM
- IC50 [3, 10]: > 10000 nM

Structure (SMILES): Cn1cc2cc(-c3ccc4c(c3)CCN(C3CCNCC3)C4=O)cc(F)c2n1 [Compound 225]
- IC50 [1, 4]: > 10000 nM
- AC50 ([1]; RT-qPCR): > 10000 nM
- IC50 [1, 5]: > 10000 nM
- IC50 [2, 6]: 1000 to 10000 nM
- IC50 [3, 7]: 1000 to 10000 nM
